Patent publication US11452725B2, “Chiral diaryl macrocycles and uses thereof” (TURNING POINT THERAPEUTICS, INC., priority 2015, dated 2022)

System: CD44
Experiment: CD44 expression by immunoblotting in H2228 cells
Format: cell-based, human
Settings: 48 hours treatment, 0-1000 nM
Description: NSCLC cell line H2228 (harboring endogenous EML4-ALK fusion gene) was cultured in RPMI medium supplemented with 10% fetal bovine serum and 100 U/mL of penicillin/streptomycin. Ba/F3 and NIH3T3 cells stably expressing ROS1, or TRKA, or TRKB, or TRKC (WT or mutant) were cultured as mentioned above. […] Cells were collected after treatment and lysed in RIPA buffer (50 mM Tris, pH 7.4, 150 mM NaCl, 1% NP-40, 0.5% Deoxycholate, 0.1% SDS) supplemented with 10 mM EDTA, 1× Halt protease and phosphatase inhibitors (Thermo Scientific). Protein lysates (approximately 20 μg) was resolved on 4-12% Bolt Bis-Tris precasted gels with MES running buffer (Life Technologies), transferred to nitrocellulose membranes using Trans-Blot Turbo Transfer System (Bio-Rad) and detected with antibodies targeting phosphorylated phosphorylated ROS1 and total ROS1 (Cell Signaling Technology), phosphorylated TRK A/B (Cell Signaling Technology), total TRKA antibody (Santa Cruz Biotechnology), phosphorylated SRC Y416 (Cell Signaling Technology), total SRC (Cell Signaling Technology), phosphorylated FAK Y576/577 (Cell Signaling Technology), total FAK (Cell Signaling Technology), phosphorylated paxillin Y118 (Cell Signaling Technology), total paxillin (Cell Signaling Technology), phosphorylated EGFR and total EGFR, CD44, and Tubulin (Sigma). […]

C[C@@H](Oc1cc(-c2cnn(C3CCNCC3)c2)cnc1N)c1c(Cl)ccc(F)c1Cl [crizotinib, reference compound]
CD44 expression level: does not show down-regulation of CD44 expression
